Reference: patent US20260262643A1, “HERBICIDAL BENZOXAZINES” (FMC CORPORATION, priority 2022, published 2026)

Key:
ryegrass, Italian [1] = test: Test C preemergence; format: in vivo, Lolium multiflorum; details: for Plant response rating, Ryegrass, Italian: Preemergence; for Ryegrass, Italian plant response rating: preemergence
Outline: (§1)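 Greenhouse herbicide screen, 10-day duration. Test chemicals in solvent/surfactant blend were sprayed onto soil at sowing (pre) or onto 2–10 cm seedlings at one to two leaves (post); injury scored visually against controls, 0 no effect to 100 complete control.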

blackgrass [2] = test: Test C preemergence; format: in vivo, Alopecurus myosuroides; details: for Plant response rating, Blackgrass: Preemergence; for Blackgrass plant response rating: preemergence
Outline: as §1

green foxtail [3] = test: Test C postemergence; format: in vivo, Setaria viridis; details: 10 days
Outline: as §1

blackgrass [4] = test: Test C postemergence; format: in vivo, Alopecurus myosuroides; details: 10 days
Outline: as §1

soybean [5] = test: Test C preemergence; format: in vivo, Glycine max; details: for Plant response rating, Soybean: Preemergence; for Soybean plant response rating: preemergence
Outline: as §1

kochia [6] = test: Test C preemergence; format: in vivo, Bassia scoparia; details: for Plant response rating, Kochia: Preemergence; for Kochia plant response rating: preemergence
Outline: as §1

oat, wild [7] = test: Test C postemergence; format: in vivo, Avena fatua; details: 10 days
Outline: as §1

ducksalad = test: Test D flooded paddy test; format: in vivo, Heteranthera limosa; details: 250 g ai/ha, applied to paddy water, visual rating after 13 to 14 days, scale 0 to 100 (0 no effect, 100 complete control)
Outline: (§2)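 Plants at the 2-leaf stage were grown in pots flooded to 3 cm, and compound was applied directly into the paddy water, with depth kept throughout. After 13–14 days in a greenhouse, injury was rated visually against untreated controls on a 0–100 scale (100 = complete control); a dash means not tested.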

wheat [8] = test: Test C postemergence; format: in vivo, Triticum aestivum; details: 10 days
Outline: as §1

barnyardgrass [9] = test: Test C postemergence; format: in vivo, Echinochloa crusgalli; details: 10 days
Outline: as §1

barnyardgrass [10] = test: Test D flooded paddy test; format: in vivo, Echinochloa crus-galli; details: 250 g ai/ha, applied to paddy water, visual rating after 13 to 14 days, scale 0 to 100 (0 no effect, 100 complete control)
Outline: as §2

oat, wild [11] = test: Test C preemergence; format: in vivo, Avena fatua; details: for Plant response rating, Oat, Wild: Preemergence; for Oat, Wild plant response rating: preemergence
Outline: as §1

ragweed [12] = test: Test C postemergence; format: in vivo, Ambrosia artemisiifolia; details: 10 days
Outline: as §1

pigweed, palmer [13] = test: Test C preemergence; format: in vivo, Amaranthus palmeri; details: for Plant response rating, Pigweed, Palmer: Preemergence; for Pigweed, Palmer plant response rating: preemergence
Outline: as §1

green foxtail [14] = test: Test C preemergence; format: in vivo, Setaria viridis; details: for Plant response rating, Foxtail, Green: Preemergence; for Foxtail, Green plant response rating: preemergence
Outline: as §1

wheat [15] = test: Test C preemergence; format: in vivo, Triticum aestivum; details: for Plant response rating, Wheat: Preemergence; for Wheat plant response rating: preemergence
Outline: as §1

ryegrass, Italian [16] = test: Test C postemergence; format: in vivo, Lolium multiflorum; details: 10 days
Outline: as §1

kochia [17] = test: Test C postemergence; format: in vivo, Bassia scoparia; details: 10 days
Outline: as §1

horseweed = test: Test C postemergence; format: in vivo, Erigeron canadensis; details: 10 days
Outline: as §1

soybean [18] = test: Test C postemergence; format: in vivo, Glycine max; details: 10 days
Outline: as §1

sedge, umbrella = test: Test D flooded paddy test; format: in vivo, Cyperus difformis; details: 250 g ai/ha, applied to paddy water, visual rating after 13 to 14 days, scale 0 to 100 (0 no effect, 100 complete control)
Outline: as §2

corn [19] = test: Test C postemergence; format: in vivo, Zea mays; details: 10 days
Outline: as §1

corn [20] = test: Test C preemergence; format: in vivo, Zea mays; details: for Plant response rating, Corn: Preemergence; for Corn plant response rating: preemergence
Outline: as §1

pigweed, palmer [21] = test: Test C postemergence; format: in vivo, Amaranthus palmeri; details: 10 days
Outline: as §1

barnyardgrass [22] = test: Test C preemergence; format: in vivo, Echinochloa crusgalli; details: for Plant response rating, Barnyardgrass: Preemergence; for Barnyardgrass plant response rating: preemergence
Outline: as §1

rice = test: Test D flooded paddy test; format: in vivo, Oryza sativa; details: 250 g ai/ha, applied to paddy water, visual rating after 13 to 14 days, scale 0 to 100 (0 no effect, 100 complete control)
Outline: as §2

ragweed [23] = test: Test C preemergence; format: in vivo, Ambrosia artemisiifolia; details: for Plant response rating, Ragweed: Preemergence; for Ragweed plant response rating: preemergence
Outline: as §1

[24] = 500 g ai/ha, visual rating after 10 days, 0 to 100 scale (0 no effect, 100 complete control)
[25] = Test C, 125 g ai/ha, 0 to 100 scale (0 no effect, 100 complete control)
[26] = 125 g ai/ha, postemergence, 0 to 100 scale, 0 no effect, 100 complete control
[27] = Postemergence, 500 g ai/ha, visual 0 to 100 scale (0 no effect, 100 complete control)
[28] = 500 g ai/ha, 0 to 100 scale (0 no effect, 100 complete control)
[29] = 125 g ai/ha, 0 to 100 scale, 0 no effect, 100 complete control
[30] = 500 g ai/ha, postemergence, 0 to 100 scale (0 no effect, 100 complete control)
[31] = Postemergence, 125 g ai/ha, 0 to 100 scale (0 no effect, 100 complete control)

COc1cc(C(=O)N2C[C@H](C)Oc3c(Cl)cccc32)cc(-n2cnc(C(C)(C)C)n2)c1 [Compound 213]
Plant response rating, Ryegrass, Italian (ryegrass, Italian [1]; [24]): 90 | Ryegrass, Italian plant response rating (ryegrass, Italian [1]; [25]): 90 | Plant response rating, Blackgrass (blackgrass [2]; [24]): 80 | Blackgrass plant response rating (blackgrass [2]; [25]): 60 | Plant response rating, Foxtail, Green (green foxtail [3]; [26]): 40 | Plant response rating, Foxtail, Green (green foxtail [3]; [27]): 70 | Plant response rating, Blackgrass (blackgrass [4]; [26]): 0 | Plant response rating, Blackgrass (blackgrass [4]; [27]): 70 | Plant response rating, Soybean (soybean [5]; [24]): 100 | Soybean plant response rating (soybean [5]; [25]): 50 | Plant response rating, Kochia (kochia [6]; [24]): 100 | Kochia plant response rating (kochia [6]; [25]): 30 | Plant response rating, Oat, Wild (oat, wild [7]; [26]): 10 | Plant response rating, Oat, Wild (oat, wild [7]; [27]): 20 | Plant response rating, Ducksalad (Flood) (ducksalad): 90 | Plant response rating, Wheat (wheat [8]; [26]): 20 | Plant response rating, Wheat (wheat [8]; [27]): 20 | Plant response rating, Barnyardgrass (barnyardgrass [9]; [26]): 20 | Plant response rating, Barnyardgrass (barnyardgrass [9]; [27]): 30 | Plant response rating, Barnyardgrass (Flood) (barnyardgrass [10]): 20 | Plant response rating, Oat, Wild (oat, wild [11]; [24]): 70 | Oat, Wild plant response rating (oat, wild [11]; [25]): 10 | Plant response rating, Ragweed (ragweed [12]; [26]): 30 | Plant response rating, Ragweed (ragweed [12]; [27]): 80 | Plant response rating, Pigweed, Palmer (pigweed, palmer [13]; [24]): 100 | Pigweed, Palmer plant response rating (pigweed, palmer [13]; [25]): 100 | Plant response rating, Foxtail, Green (green foxtail [14]; [24]): 100 | Foxtail, Green plant response rating (green foxtail [14]; [25]): 100 | Plant response rating, Wheat (wheat [15]; [24]): 90 | Wheat plant response rating (wheat [15]; [25]): 10 | Plant response rating, Ryegrass, Italian (ryegrass, Italian [16]; [26]): 30 | Plant response rating, Ryegrass, Italian (ryegrass, Italian [16]; [27]): 60 | Plant response rating, Kochia (kochia [17]; [26]): 90 | Plant response rating, Kochia (kochia [17]; [27]): 90 | Plant response rating, Horseweed (horseweed; [26]): 20 | Plant response rating, Horseweed (horseweed; [27]): 30 | Plant response rating, Soybean (soybean [18]; [26]): 100 | Plant response rating, Soybean (soybean [18]; [27]): 100 | Plant response rating, Sedge, Umbrella (Flood) (sedge, umbrella): 100 | Plant response rating, Corn (corn [19]; [26]): 10 | Plant response rating, Corn (corn [19]; [27]): 20 | Plant response rating, Corn (corn [20]; [24]): 10 | Corn plant response rating (corn [20]; [25]): 0 | Plant response rating, Pigweed, Palmer (pigweed, palmer [21]; [26]): 100 | Plant response rating, Pigweed, Palmer (pigweed, palmer [21]; [27]): 100 | Plant response rating, Barnyardgrass (barnyardgrass [22]; [24]): 100 | Barnyardgrass plant response rating (barnyardgrass [22]; [25]): 60 | Plant response rating, Rice (Flood) (rice): 0 | Plant response rating, Ragweed (ragweed [23]; [24]): 30 | Ragweed plant response rating (ragweed [23]; [25]): 0

CCOC[C@H]1CN(C(=O)c2cc(-n3cnc(C4CCC4)n3)cc3c2OCO3)c2cccc(Cl)c2O1 [Compound 399]
Ryegrass, Italian plant response rating (ryegrass, Italian [1]; [28]): 70 | Plant response rating, Ryegrass, Italian (ryegrass, Italian [1]; [29]): 50 | Blackgrass plant response rating (blackgrass [2]; [28]): 0 | Plant response rating, Blackgrass (blackgrass [2]; [29]): 0 | Plant response rating, Foxtail, Green (green foxtail [3]; [30]): 40 | Plant response rating, Foxtail, Green (green foxtail [3]; [31]): 10 | Plant response rating, Blackgrass (blackgrass [4]; [30]): 20 | Plant response rating, Blackgrass (blackgrass [4]; [31]): 0 | Soybean plant response rating (soybean [5]; [28]): 20 | Plant response rating, Soybean (soybean [5]; [29]): 0 | Kochia plant response rating (kochia [6]; [28]): 70 | Plant response rating, Kochia (kochia [6]; [29]): 0 | Plant response rating, Oat, Wild (oat, wild [7]; [30]): 0 | Plant response rating, Oat, Wild (oat, wild [7]; [31]): 0 | Plant response rating, Ducksalad (Flood) (ducksalad): 0 | Plant response rating, Wheat (wheat [8]; [31]): 20 | Plant response rating, Barnyardgrass (barnyardgrass [9]; [30]): 30 | Plant response rating, Barnyardgrass (barnyardgrass [9]; [31]): 20 | Plant response rating, Barnyardgrass (Flood) (barnyardgrass [10]): 0 | Oat, Wild plant response rating (oat, wild [11]; [28]): 30 | Plant response rating, Oat, Wild (oat, wild [11]; [29]): 0 | Plant response rating, Ragweed (ragweed [12]; [31]): 70 | Pigweed, Palmer plant response rating (pigweed, palmer [13]; [28]): 100 | Plant response rating, Pigweed, Palmer (pigweed, palmer [13]; [29]): 100 | Foxtail, Green plant response rating (green foxtail [14]; [28]): 100 | Plant response rating, Foxtail, Green (green foxtail [14]; [29]): 20 | Wheat plant response rating (wheat [15]; [28]): 10 | Plant response rating, Wheat (wheat [15]; [29]): 0 | Plant response rating, Ryegrass, Italian (ryegrass, Italian [16]; [31]): 0 | Plant response rating, Kochia (kochia [17]; [30]): 90 | Plant response rating, Kochia (kochia [17]; [31]): 90 | Plant response rating, Horseweed (horseweed; [30]): 70 | Plant response rating, Horseweed (horseweed; [31]): 50 | Plant response rating, Soybean (soybean [18]; [31]): 0 | Plant response rating, Sedge, Umbrella (Flood) (sedge, umbrella): 0 | Plant response rating, Corn (corn [19]; [30]): 10 | Plant response rating, Corn (corn [19]; [31]): 0 | Corn plant response rating (corn [20]; [28]): 0 | Plant response rating, Corn (corn [20]; [29]): 0 | Plant response rating, Pigweed, Palmer (pigweed, palmer [21]; [30]): 100 | Plant response rating, Pigweed, Palmer (pigweed, palmer [21]; [31]): 100 | Barnyardgrass plant response rating (barnyardgrass [22]; [28]): 70 | Plant response rating, Barnyardgrass (barnyardgrass [22]; [29]): 10 | Plant response rating, Rice (Flood) (rice): 0 | Ragweed plant response rating (ragweed [23]; [28]): 80 | Plant response rating, Ragweed (ragweed [23]; [29]): 30
